Source: ChEMBL document CHEMBL4033685, “C21-steroidal pregnane sapogenins and their derivatives as anti-inflammatory agents” (Bioorg Med Chem, 2017)
Active and inactive are the calls of the source. The calls are words filed in the database; no cut-off is given here.

Columns and labels:
[1] = biological target: T1, Nuclear factor NF-kappa-B p100 subunit (Homo sapiens) (UniProt Q00653); assay: Effect on p100/p52 phosphorylation in human THP1 cells at 10 uM after 3 hrs by Western blot analysis; format: cell-based
T1 sequence (whole entry): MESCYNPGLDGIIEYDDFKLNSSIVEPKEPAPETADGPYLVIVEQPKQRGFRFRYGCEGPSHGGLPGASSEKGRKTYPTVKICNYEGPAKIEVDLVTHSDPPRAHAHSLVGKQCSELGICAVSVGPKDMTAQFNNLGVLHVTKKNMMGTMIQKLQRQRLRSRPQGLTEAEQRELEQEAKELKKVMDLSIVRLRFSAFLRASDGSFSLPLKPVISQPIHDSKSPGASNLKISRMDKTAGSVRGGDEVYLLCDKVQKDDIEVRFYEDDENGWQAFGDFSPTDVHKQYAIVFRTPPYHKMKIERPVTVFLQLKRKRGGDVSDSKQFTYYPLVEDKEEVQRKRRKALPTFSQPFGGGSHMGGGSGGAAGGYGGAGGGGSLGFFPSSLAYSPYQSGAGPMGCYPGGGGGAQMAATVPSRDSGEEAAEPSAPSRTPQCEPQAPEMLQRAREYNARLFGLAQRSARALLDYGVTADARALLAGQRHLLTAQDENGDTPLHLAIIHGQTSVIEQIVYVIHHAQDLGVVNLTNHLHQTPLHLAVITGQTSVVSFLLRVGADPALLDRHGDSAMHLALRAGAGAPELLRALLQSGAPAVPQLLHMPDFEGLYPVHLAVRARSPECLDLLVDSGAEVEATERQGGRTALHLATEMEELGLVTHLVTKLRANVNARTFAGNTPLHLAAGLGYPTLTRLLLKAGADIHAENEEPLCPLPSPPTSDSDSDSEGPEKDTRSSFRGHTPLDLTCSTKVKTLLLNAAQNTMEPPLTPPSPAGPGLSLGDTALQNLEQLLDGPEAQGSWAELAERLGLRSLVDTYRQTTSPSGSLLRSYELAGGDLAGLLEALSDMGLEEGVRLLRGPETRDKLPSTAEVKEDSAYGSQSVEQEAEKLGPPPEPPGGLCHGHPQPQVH

Toll-like receptor 4 [2] = biological target: T2, Toll-like receptor 4 (Homo sapiens, UniProt O00206); assay: Antagonist activity at TLR4 in human THP1 cells assessed as inhibition of LPS-stimulated NF-kB non-canonical signaling pathway by measuring decrease in RelB expression at 10 uM after 3 hrs by Western blot analysis; format: cell-based
T2 sequence (O00206 whole entry): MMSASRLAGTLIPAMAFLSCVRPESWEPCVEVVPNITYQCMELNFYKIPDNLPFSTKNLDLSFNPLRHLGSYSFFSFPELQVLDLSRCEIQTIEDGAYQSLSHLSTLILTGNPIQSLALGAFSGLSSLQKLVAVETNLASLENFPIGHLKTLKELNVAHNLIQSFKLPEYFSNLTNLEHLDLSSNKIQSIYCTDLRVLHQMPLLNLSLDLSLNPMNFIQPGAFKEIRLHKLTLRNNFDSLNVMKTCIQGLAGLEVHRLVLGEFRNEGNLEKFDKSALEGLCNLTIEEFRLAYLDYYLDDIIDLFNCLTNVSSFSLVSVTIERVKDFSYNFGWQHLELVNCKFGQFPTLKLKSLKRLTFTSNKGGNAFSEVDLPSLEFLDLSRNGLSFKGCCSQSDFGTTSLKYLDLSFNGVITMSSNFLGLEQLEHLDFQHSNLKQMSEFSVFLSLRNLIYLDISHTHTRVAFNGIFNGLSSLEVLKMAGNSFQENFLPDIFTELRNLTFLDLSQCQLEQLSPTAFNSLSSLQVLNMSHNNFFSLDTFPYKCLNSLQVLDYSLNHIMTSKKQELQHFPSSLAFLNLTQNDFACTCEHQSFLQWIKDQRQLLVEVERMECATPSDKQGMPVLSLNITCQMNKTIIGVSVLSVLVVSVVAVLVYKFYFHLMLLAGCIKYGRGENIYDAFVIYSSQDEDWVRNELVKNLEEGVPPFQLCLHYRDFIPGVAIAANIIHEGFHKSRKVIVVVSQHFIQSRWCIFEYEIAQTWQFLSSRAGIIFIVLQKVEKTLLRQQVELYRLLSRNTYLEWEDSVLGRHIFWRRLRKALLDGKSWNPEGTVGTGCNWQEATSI

AD293 [3] = assay: Effect on IkBalpha protein expression in TNFalpha-stimulated human AD293 cells at 10 uM after 3 hrs by Western blot analysis; format: functional, cell-based
Toll-like receptor 4 [4] = biological target: T2, Toll-like receptor 4; assay: Antagonist activity at TLR4 in human THP1 cells harboring human TRAF6 assessed as inhibition of LPS-stimulated TNFalpha level at 10 uM by bead based immunoassay; format: cell-based
[5] = biological target: T1, Nuclear factor NF-kappa-B p100 subunit (Homo sapiens); assay: Effect on p100 phosphorylation in human THP1 cells at 10 uM after 3 hrs by Western blot analysis; format: cell-based
Toll-like receptor 4 [6] = biological target: T2, Toll-like receptor 4; assay: Antagonist activity at TLR4 in human THP1 cells assessed as inhibition of LPS-stimulated NF-kB non-canonical signaling pathway by measuring decrease in p100/p52 phosphorylation at 10 uM after 3 hrs by Western blot analysis; format: cell-based
Toll-like receptor 4 [7] = biological target: T2, Toll-like receptor 4; assay: Antagonist activity at TLR4 in human THP1 cells assessed as increase in LPS-stimulated NFkappaB p65 phosphorylation at 10 uM after 3 hrs by Western blot analysis; format: cell-based
THP-1 [8] = assay: Effect on RelB protein expression in human THP1 cells at 10 uM after 3 hrs by Western blot analysis; format: functional, cell-based
Toll-like receptor 4 [9] = biological target: T2, Toll-like receptor 4; assay: Antagonist activity at TLR4 in human THP1 cells assessed as inhibition of LPS-stimulated IL-6 level at 10 uM by bead based immunoassay; format: cell-based
AD293 [10] = assay: Upregulation of IKKalpha protein expression in human AD293 cells at 10 uM after 3 hrs by Western blot analysis; format: functional, cell-based
[11] = biological target: Toll-like receptor 3 (Homo sapiens) (UniProt O15455); assay: Antagonist activity at TLR3 in human THP1 cells assessed as inhibition of poly IC-stimulated TNFalpha level at 10 uM by bead based immunoassay; format: cell-based
Chain of Toll-like receptor 3 (Homo sapiens) (O15455 whole entry): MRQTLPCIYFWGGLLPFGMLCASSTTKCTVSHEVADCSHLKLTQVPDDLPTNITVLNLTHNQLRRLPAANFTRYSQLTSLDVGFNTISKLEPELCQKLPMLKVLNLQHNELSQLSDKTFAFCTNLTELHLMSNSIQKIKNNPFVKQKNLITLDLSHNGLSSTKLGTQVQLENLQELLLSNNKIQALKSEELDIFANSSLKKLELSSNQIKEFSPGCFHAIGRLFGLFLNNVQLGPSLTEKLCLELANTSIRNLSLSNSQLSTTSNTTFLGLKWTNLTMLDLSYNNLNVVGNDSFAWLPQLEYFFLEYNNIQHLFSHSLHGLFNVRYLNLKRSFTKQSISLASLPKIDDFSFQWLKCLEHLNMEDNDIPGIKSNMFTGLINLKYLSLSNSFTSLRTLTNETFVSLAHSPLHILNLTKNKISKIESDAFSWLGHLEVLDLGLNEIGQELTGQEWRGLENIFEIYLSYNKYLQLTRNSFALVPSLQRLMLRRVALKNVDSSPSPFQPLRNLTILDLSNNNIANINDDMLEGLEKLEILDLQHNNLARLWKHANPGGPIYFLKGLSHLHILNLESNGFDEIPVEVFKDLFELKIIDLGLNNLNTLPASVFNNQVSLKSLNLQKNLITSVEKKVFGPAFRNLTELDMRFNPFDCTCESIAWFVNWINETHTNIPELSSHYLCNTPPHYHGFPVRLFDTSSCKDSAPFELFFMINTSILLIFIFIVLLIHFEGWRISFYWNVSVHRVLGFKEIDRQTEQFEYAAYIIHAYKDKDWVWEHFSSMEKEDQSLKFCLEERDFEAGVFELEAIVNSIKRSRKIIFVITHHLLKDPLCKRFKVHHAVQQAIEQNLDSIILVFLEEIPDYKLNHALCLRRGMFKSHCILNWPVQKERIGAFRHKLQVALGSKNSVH

Toll-like receptor 4 [12] = biological target: T2, Toll-like receptor 4; assay: Antagonist activity at TLR4 in human THP1 cells harboring human TRAF6 assessed as inhibition of LPS-stimulated IL-1beta level at 10 uM by bead based immunoassay; format: cell-based
AD293 [13] = assay: Upregulation of IKKalpha protein expression in TNFalpha-stimulated human AD293 cells at 10 uM after 3 hrs by Western blot analysis; format: functional, cell-based
THP-1 [14] = assay: Upregulation of IKKalpha protein expression in LPS-stimulated human THP1 cells at 10 uM after 3 hrs by Western blot analysis; format: functional, cell-based
THP-1 [15] = assay: Upregulation of IKKalpha protein expression in human THP1 cells at 10 uM after 3 hrs by Western blot analysis; format: functional, cell-based
Toll-like receptor 4 [16] = biological target: T2, Toll-like receptor 4; assay: Antagonist activity at TLR4 in human THP1 cells harboring human TRAF6 assessed as inhibition of LPS-stimulated IL-6 level at 10 uM by bead based immunoassay; format: cell-based
AD293 [17] = assay: Cytotoxicity against human AD293 cells assessed as reduction in cell viability after 24 hrs by methylene blue dye based spectrophotometric method; settings: ad293, 24 h
Toll-like receptor 4 [18] = biological target: T2, Toll-like receptor 4; assay: Antagonist activity at TLR4 in human THP1 cells assessed as inhibition of LPS-stimulated TNFalpha level at 10 uM by bead based immunoassay; format: cell-based
[19] = biological target: Toll-like receptor 3 (Homo sapiens) (UniProt O15455); assay: Antagonist activity at TLR3 in human THP1 cells assessed as inhibition of poly IC-stimulated IL-1beta level at 10 uM by bead based immunoassay; format: cell-based
[20] = biological target: T3, NF-kappa-B inhibitor alpha (Homo sapiens) (UniProt P25963); assay: Inhibition of TNFalpha-stimulated IkBalpha phosphorylation in human AD293 cells at 10 uM after 3 hrs by Western blot analysis; format: cell-based
T3 sequence (whole entry): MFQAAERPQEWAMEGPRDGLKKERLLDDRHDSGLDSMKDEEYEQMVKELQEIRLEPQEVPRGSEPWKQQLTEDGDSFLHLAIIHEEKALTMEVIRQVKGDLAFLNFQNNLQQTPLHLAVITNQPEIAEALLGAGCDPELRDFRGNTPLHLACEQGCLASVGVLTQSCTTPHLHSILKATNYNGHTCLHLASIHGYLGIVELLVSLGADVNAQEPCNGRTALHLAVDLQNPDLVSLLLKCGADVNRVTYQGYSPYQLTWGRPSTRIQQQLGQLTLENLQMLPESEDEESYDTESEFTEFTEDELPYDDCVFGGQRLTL

Toll-like receptor 4 [21] = biological target: T2, Toll-like receptor 4; assay: Antagonist activity at TLR4 in human THP1 cells assessed as inhibition of LPS-stimulated IL-1beta level at 10 uM by bead based immunoassay; format: cell-based
[22] = biological target: Transcription factor p65 (Homo sapiens) (UniProt Q04206); assay: Inhibition of TNFalpha-stimulated NF-kB p65 activation (unknown origin) expressed in human AD293 cells assessed as nuclear translocation of p65 at 10 uM after 3 hrs by confocal microscopic method; format: cell-based
Chain of Transcription factor p65 (Homo sapiens) (Q04206 whole entry): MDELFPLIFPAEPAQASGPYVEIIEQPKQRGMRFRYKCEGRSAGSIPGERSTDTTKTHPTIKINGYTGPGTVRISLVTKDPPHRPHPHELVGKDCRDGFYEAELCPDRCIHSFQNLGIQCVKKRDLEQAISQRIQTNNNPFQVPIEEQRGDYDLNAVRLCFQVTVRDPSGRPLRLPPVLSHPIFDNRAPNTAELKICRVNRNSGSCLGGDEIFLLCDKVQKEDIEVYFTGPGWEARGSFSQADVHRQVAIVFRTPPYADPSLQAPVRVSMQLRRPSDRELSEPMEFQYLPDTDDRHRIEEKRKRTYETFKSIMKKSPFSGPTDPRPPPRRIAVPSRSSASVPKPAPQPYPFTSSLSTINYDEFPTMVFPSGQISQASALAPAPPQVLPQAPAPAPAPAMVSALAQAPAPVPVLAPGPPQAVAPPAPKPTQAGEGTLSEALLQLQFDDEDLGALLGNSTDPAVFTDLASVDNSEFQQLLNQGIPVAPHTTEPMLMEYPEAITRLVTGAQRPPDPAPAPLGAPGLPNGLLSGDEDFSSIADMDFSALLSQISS

Toll-like receptor 4 [23] = biological target: T2, Toll-like receptor 4; assay: Antagonist activity at TLR4 (unknown origin) expressed in human AD293 cells assessed as inhibition of LPS/ATP-stimulated TLR4/NF-kB signaling pathway after 16 hrs by luciferase reporter gene assay; format: cell-based

## CC(=O)[C@]1(O)CC[C@@]2(O)[C@]1(C)[C@H](OC(=O)c1ccc(O)cc1)C[C@@H]1[C@@]3(C)CC[C@H](OC(=O)CCl)CC3=CC[C@]12O
[1]
  Activity: inactive
Toll-like receptor 4 [2]
  inhibition: inactive
AD293 [3]
  Activity: inactive
Toll-like receptor 4 [4]
  inhibition: inactive
[5]
  Activity: inactive
Toll-like receptor 4 [6]
  inhibition: inactive
Toll-like receptor 4 [7]
  inhibition: inactive
THP-1 [8]
  Activity: inactive
Toll-like receptor 4 [9]
  inhibition: Active
AD293 [10]
  Activity: Active
[11]
  inhibition: Active
Toll-like receptor 4 [12]
  inhibition: inactive
AD293 [13]
  Activity: Active
THP-1 [14]
  Activity: Active
THP-1 [15]
  Activity: Active
Toll-like receptor 4 [16]
  inhibition: inactive
AD293 [17]
  CC10: > 10 µM
Toll-like receptor 4 [18]
  inhibition: Active
[19]
  inhibition: Active
[20]
  inhibition: inactive
Toll-like receptor 4 [21]
  inhibition: Active
[22]
  inhibition: inactive
Toll-like receptor 4 [23]
  EC50: 3.27 µM

## COc1ccc(/C=C/C(=O)O[C@H]2CC[C@@]3(C)C(=CC[C@]4(O)[C@@H]3C[C@@H](OC(=O)/C=C(\C)C(C)C)[C@@]3(C)[C@]4(O)CC[C@@]3(O)C(C)=O)C2)cc1
[1]
  Activity: inactive
Toll-like receptor 4 [2]
  inhibition: inactive
AD293 [3]
  Activity: inactive
Toll-like receptor 4 [4]
  inhibition: inactive
[5]
  Activity: inactive
Toll-like receptor 4 [6]
  inhibition: inactive
Toll-like receptor 4 [7]
  inhibition: Active
THP-1 [8]
  Activity: inactive
Toll-like receptor 4 [9]
  inhibition: Active
AD293 [10]
  Activity: Active
[11]
  inhibition: Active
Toll-like receptor 4 [12]
  inhibition: inactive
AD293 [13]
  Activity: Active
THP-1 [14]
  Activity: Active
THP-1 [15]
  Activity: Active
Toll-like receptor 4 [16]
  inhibition: inactive
AD293 [17]
  CC10: > 10 µM
Toll-like receptor 4 [18]
  inhibition: Active
[19]
  inhibition: Active
[20]
  inhibition: inactive
Toll-like receptor 4 [21]
  inhibition: Active
[22]
  inhibition: inactive
Toll-like receptor 4 [23]
  EC50: 3.95 µM
